Data reported in the supplement of paper PMC10307832.

Assays:
Test in all cases: relative viability (nuclei count vs DMSO), 5 days (fraction); higher = more cells survive
[1] = compound: C1=CC2=C(C=CC(=C2)C=C3C(=O)NC(=NCC4=CC=CS4)S3)N=C1 [RO-3306] + CC(=O)Nc1cccc(-n2c(=O)n(C3CC3)c(=O)c3c(Nc4ccc(I)cc4F)n(C)c(=O)c(C)c32)c1 [Trametinib] (partner 0.02 µM)
Method in brief: (§1)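 Relative viability is defined as nuclei in treated wells over nuclei in vehicle wells. Duplicate plates were run and medians reported. Lung cancer cell lines in 1536-well plates were dosed by pin tool one day after seeding, with one drug or with a fixed anchor-drug dose plus five library-drug doses (not always all listed) in √10 steps, and nuclei were counted after 5 days.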

[2] = compound: C1=CC2=C(C=CC(=C2)C=C3C(=O)NC(=NCC4=CC=CS4)S3)N=C1 [RO-3306] + CS(=O)(=O)CCNCc1ccc(-c2ccc3ncnc(Nc4ccc(OCc5cccc(F)c5)c(Cl)c4)c3c2)o1 [Lapatinib] (partner 2 µM)
Method in brief: as §1

[3] = compound: O=S(=O)(c1ccccc1)N(CC(F)(F)F)c1ccc(C(O)(C(F)(F)F)C(F)(F)F)cc1 + CC(=O)Nc1cccc(-n2c(=O)n(C3CC3)c(=O)c3c(Nc4ccc(I)cc4F)n(C)c(=O)c(C)c32)c1 [Trametinib] (partner 0.02 µM)
Method in brief: as §1

[4] = compound: O=S(=O)(c1ccccc1)N(CC(F)(F)F)c1ccc(C(O)(C(F)(F)F)C(F)(F)F)cc1 + CC(=O)c1c(C)c2cnc(Nc3ccc(N4CCNCC4)cn3)nc2n(C2CCCC2)c1=O [Palbociclib] (partner 0.5 µM)
Method in brief: as §1

[5] = compound: O=S(=O)(c1ccccc1)N(CC(F)(F)F)c1ccc(C(O)(C(F)(F)F)C(F)(F)F)cc1 + Cc1nc(Nc2ncc(C(=O)Nc3c(C)cccc3Cl)s2)cc(N2CCN(CCO)CC2)n1 [Dasatinib] (partner 0.075 µM)
Method in brief: as §1

| Cell Line | relative viability ([1]; first compound 0.01 µM) | relative viability ([1]; first compound 0.1 µM) | relative viability ([1]; first compound 0.3162 µM) | relative viability ([1]; first compound 1 µM) | relative viability ([2]; first compound 0.01 µM) | relative viability ([2]; first compound 0.03162 µM) | relative viability ([2]; first compound 0.1 µM) | relative viability ([2]; first compound 0.3162 µM) | relative viability ([2]; first compound 1 µM) | relative viability ([3]; first compound 0.8 µM) | relative viability ([3]; first compound 8 µM) | relative viability ([4]; first compound 0.8 µM) | relative viability ([4]; first compound 2.53 µM) | relative viability ([4]; first compound 8 µM) | relative viability ([5]; first compound 0.8 µM) | relative viability ([5]; first compound 2.53 µM) | relative viability ([5]; first compound 8 µM) | relative viability ([1]; first compound 0.03162 µM) | relative viability ([3]; first compound 2.53 µM) |
| --- | --- | --- | --- | --- | --- | --- | --- | --- | --- | --- | --- | --- | --- | --- | --- | --- | --- | --- | --- |
| HARA | 0.448 | 0.519 | 0.694 | 0.741 | 0.763 | 0.627 | 0.758 | 0.687 | 0.535 | 0.561 | 0.634 | 0.246 | 0.244 | 0.27 | 0.294 | 0.287 | 0.242 |  |  |
| NCI-H1355 | 0.472 | 0.404 | 0.448 | 0.376 | 1.15 | 0.926 | 0.973 | 1.04 | 0.886 | 0.456 | 0.382 | 0.377 | 0.42 | 0.359 | 0.771 | 0.661 | 0.663 | 0.324 | 0.427 |
| NCI-H1395 | 1.24 | 0.886 | 1.1 | 0.916 | 0.817 | 0.925 | 0.824 | 1.08 | 0.826 | 1.13 | 0.965 | 0.642 | 0.627 | 0.603 | 0.321 | 0.375 | 0.414 | 0.983 | 1 |
| NCI-H1437 | 0.539 | 0.54 | 0.543 | 0.527 | 0.835 | 0.543 | 0.788 | 0.794 | 0.772 | 0.538 | 0.432 | 0.308 | 0.268 | 0.304 | 0.327 | 0.297 | 0.287 | 0.409 | 0.36 |
| NCI-H358 | 0.131 | 0.127 | 0.135 | 0.12 | 0.5 | 0.431 | 0.39 | 0.495 | 0.425 |  | 0.118 |  | 0.129 | 0.116 | 0.124 | 0.144 | 0.148 | 0.131 | 0.118 |
| HOP-62 | 0.433 | 0.384 | 0.398 | 0.36 | 1.47 | 0.771 | 0.93 | 1.04 | 1.06 | 0.391 | 0.355 | 0.408 | 0.3 | 0.355 | 0.716 | 0.552 | 0.544 | 0.383 | 0.297 |
| EKVX | 0.328 | 0.362 | 0.328 | 0.324 | 0.173 | 0.187 | 0.237 | 0.192 | 0.148 | 0.3 | 0.324 | 0.401 | 0.341 | 0.324 | 0.525 | 0.514 | 0.335 | 0.298 | 0.272 |
| NCI-H1666 | 0.792 | 0.835 | 0.765 | 0.783 | 0.593 | 0.407 | 0.609 | 0.61 | 0.457 | 0.902 | 0.704 | 0.645 | 0.657 | 0.601 | 0.765 | 0.68 | 0.683 | 0.665 | 0.845 |
| NCI-H2170 | 1.18 | 0.886 | 0.96 | 0.958 | 0.254 | 0.302 | 0.272 | 0.265 | 0.302 | 0.973 | 0.814 | 0.433 | 0.353 | 0.356 | 0.568 | 0.588 | 0.444 | 0.792 | 0.779 |
| 201T | 0.691 | 0.706 | 0.725 | 0.671 | 1.04 | 0.954 | 1.01 | 1.04 | 0.823 | 0.712 | 0.681 | 0.365 | 0.354 | 0.371 | 0.463 | 0.435 | 0.497 | 0.727 | 0.666 |
| COR-L 105 | 0.392 | 0.427 | 0.434 | 0.538 | 0.34 | 0.351 | 0.334 | 0.333 | 0.314 | 0.39 | 0.382 | 0.328 | 0.411 | 0.378 | 0.299 | 0.4 | 0.363 | 0.491 | 0.424 |
| NCI-H1755 | 0.859 | 0.791 | 0.803 | 0.771 | 1.2 | 1.04 | 1.03 | 1.04 | 1.01 | 0.769 | 0.815 | 0.471 | 0.46 | 0.464 | 0.373 | 0.368 | 0.429 | 0.768 | 0.661 |
| NCI-H520 | 0.896 | 0.569 | 0.714 | 0.756 | 1.01 | 0.638 | 0.806 | 0.734 | 0.754 | 0.861 | 0.701 | 0.231 | 0.254 | 0.236 | 0.235 | 0.211 | 0.26 | 0.629 | 0.603 |
| NCI-H1650 | 0.6 | 0.514 | 0.565 | 0.447 | 0.595 | 0.632 | 0.695 | 1.03 | 0.683 | 0.513 | 0.53 | 0.308 | 0.276 | 0.367 | 0.343 | 0.316 | 0.389 | 0.505 | 0.645 |
| NCI-H1793 | 0.479 | 0.408 | 0.43 | 0.513 | 0.794 | 0.409 | 0.641 | 0.753 | 0.636 | 0.33 | 0.29 | 0.258 | 0.22 | 0.258 | 0.375 | 0.335 | 0.347 |  | 0.295 |
| SK-LU-1 | 0.463 | 0.501 | 0.506 | 0.309 | 1.07 | 0.812 | 0.842 | 0.902 | 0.797 | 0.466 | 0.491 | 0.358 | 0.423 | 0.376 | 0.161 | 0.166 | 0.177 | 0.412 | 0.537 |
